What all share (type): cell-based, mouse
For one experiment, the system named is CD8^+ 2C cells. Kind of experiment: Dose-response of day 3 proliferation of CD8+ 2C cells to peptides on transfected Drosophila APC. The conditions noted are these: for proliferative response: 1 nM peptide. On the procedure: Responses to p2Ca (above) and QL9 (below) were measured by culturing 5×10^4 purified CD8^+ 2C cells with 2×10^5 Drosophila cells in the presence or absence of the indicated concentrations of peptides for 3 days. [^3H] TdR was added during the last 8 hours of culture; rIL-2 was added at a final concentration of 20 units/ml. The data are the mean of triplicate cultures. When supplemented with exogenous IL-2, however, both peptides stimulated significant proliferative responses at high doses (10 μM). The proliferative responses elicited by QL9 were far stronger than for p2Ca (note the large difference between the scales of x-axes of the upper and the lower panel).
Dose-response relationships for proliferation on day 3 elicited by Drosophila cells transfected with L^d.B7.1CAM and presenting p2Ca peptide were compared to those elicited by Drosophila cells transfected with L^d.B7, L^d.ICAM or L^d.B7.1CAM presenting QL9 peptide. Drosophila APC (2×10^5 cells) were cultured with 5×10^4 CD8^+ 2C cells for three days in the presence or absence of peptides. [^3H] TdR was added during the last 8 hours of culture; no IL-2 was added to the cultures.

The subject of experiment [1] is 2C+ T-cells. Description: Rosetting of 2C+ T-cells with L^d-bearing supports plus peptide. The following applies: peptide 0.02 mM. Here is the method:
Rosetting experiments verified that the attached MHC molecules interacted functionally with T-cells. Drosophila S2 cells expressing L^d, L^d-coated SRBC were incubated with QL9 peptide (0.02 mM) or an irrelevant peptide (MCMV, 0.02 mM) for 30 minutes on ice; 2C+ T-cells were then added, the proportion being 10 2C+ T-cells for 1 Drosophila S2 cell, or 10 SRBC for 1 2C+ T-cell; the mixture was pelleted and kept on ice for at least 30 min. Cells were then carefully resuspended and rosettes were counted, a rosette being a Drosophila S2 cell bound to at least 3 2C+ T-cells, or a 2C+ T-cell bound to at least 3 SRBC. […] Typically, 30-40% of the lymphocytes were included in rosettes when QL9 peptide was added.
Rosetting experiments verified that the attached MHC molecules on latex beads interacted functionally with T-cells. Drosophila S2 cells expressing recombinant L^d and L^d-coated latex beads were incubated with QL9 peptide (0.02 mM) or an irrelevant peptide (MCMV, 0.02 mM) for 30 minutes on ice; 2C+ T-cells were then added, the proportion being 10 2C+ T-cells for 1 Drosophila S2 cell, or […]; the mixture was pelleted and kept on ice for at least 30 min. Cells were then carefully resuspended and rosettes were counted, a rosette being a Drosophila S2 cell bound to at least 3 2C+ T-cells, or a 2C+ T-cell bound to at least 3 latex beads. […]

The subject of experiment [2] is 2C+ T-cells.
In the next experiment the test system is normal B6 CD8^+ cells. Kind of experiment: Proliferation of normal (nontransgenic) B6 CD8+ cells to peptide on L^d.B7.ICAM Drosophila APC. The conditions noted are these: 10 μM peptide, L^d.B7.1CAM APC, 1×10^6 responder cells, no added cytokines. Here is the method:
The capacity of L^d.B7.1CAM Drosophila cells to induce a strong primary response of 2C TCR transgenic CD8^+ cells raised the question whether Drosophila cells could act as antigen-presenting cells for normal (nontransgenic) CD8^+ cells. Since the 2C mice were on a B6 (H-2b) background, the response of normal B6 CD8^+ cells was tested. Graded doses of CD8^+ cells from normal B6 mice were cultured with 10 μM QL9 peptide presented by L^d.B7.1CAM Drosophila antigen-presenting cells, i.e. a situation where a diverse repertoire of T-cells was exposed to only a single alloantigen (L^d+QL9) but at high concentration. As shown in FIG. 19 (left), presentation of QL9 by L^d.B7.1CAM antigen-presenting cells was indeed immunogenic for normal B6 CD8^+ cells and led to appreciable proliferative responses on Day 3 (80,000 cpm) with large doses of responder cells (1×10^6) in the absence of added cytokines; responses to an unrelated peptide, MCMV, were much lower (though significant) and no response occurred in the absence of peptide. As expected, the response of normal B6 CD8+cells to QL9 plus L^d.B7.1CAM antigen-presenting cells was substantially lower than with normal B10.D2 spleen cells as antigen-presenting cells (where the allostimulus was provided by a multiplicity of self peptides bound to L^d, K^d and D^d, but at low concentration) (FIG. 19, right. Note the difference in the Y axis scales).

The subject of experiment [3] is 2C+ T-cells. Kind of experiment: Enrichment of 2C+ T-cells from a 1/99 mixture with C57BL/6 CD8+ cells (1B2 staining, flow cytofluorometry). Here is the method:
2C+ T-cells were mixed with total CD8^+ cells from C57BL/6 mice at a 1/99 ratio and cells were cultured with immobilized L^d and anti-CD28 antibody in the presence of peptide QL9. IL-2 was added at day 2 of culture, and subsequently every other day. Cell activation and proliferation was noted, as evidenced by the formation of clumps, presence of enlarged cells that progressively spread in the well. At day 12 of culture, cells were harvested and percentage of cells expressing the 2C T-cell receptor was assessed by staining with the anticlonotypic antibody 1B2 and analysis by flow cytofluorometry: 43% of the cells cultured initially in the presence of peptide QL9 were 2C+, (FIG. 22) whereas 49% of the cells expressed 2C after stimulation with peptide p2Ca (FIG. 23), and 22% with peptide SL9 (FIG. 24). […] Enrichment was observed even with SL9, a peptide that makes a low affinity complex with the 2C T-cell receptor. This method thus can specifically activate and enrich a small subpopulation of antigen specific T-cells out of a heterogenous mixture of T-cells.

A value given as a limit tells only on which side of the number the result lay.

In the case of “Gln-Leu-Ser-Pro-Phe-Pro-Phe-Asp-Leu [QL9]”, the proliferative response in the experiment with CD8^+ 2C cells (L^d.B7 and L^d.ICAM APC) is listed as under 100 cpm; with CD8^+ 2C cells (L^d.B7.1CAM APC), > 10,000 cpm. For the same substance, the “effect of high peptide dose on day 3 proliferative response” value in the experiment on CD8^+ 2C cells (10 μM peptide, L^d.B7.1CAM APC) is listed as “inhibited”. For the same substance, the “proliferation of 2C CD8+ cells” value with CD8^+ 2C cells (Drosophila cells with L^d alone, no exogenous lymphokines) is on record as “failed”. For the same substance, the “lowest peptide dose with clearly apparent day 3 proliferative response” value with CD8^+ 2C cells (L^d.B7.1CAM APC, no IL-2) was at most 10 pM. For the same substance, the “peptide concentration giving maximal day 3 proliferative response” value with CD8^+ 2C cells (L^d.B7.1CAM APC, no IL-2) was determined as 100 nM. Besides, the “lymphocytes included in rosettes” value with 2C+ T-cells [1] (Drosophila S2 cells expressing L^d or L^d-coated SRBC) and with 2C+ T-cells [1] (Drosophila S2 cells expressing L^d or L^d-coated latex beads) was 30-40% each time. Also, in the experiment on 2C+ T-cells [2], the thymidine incorporation entry is on record as “above 100,000 cpm per well”. Besides, the “proliferative response on Day 3” value in the experiment on normal B6 CD8^+ cells is 80,000 cpm. In the experiment on 2C+ T-cells [3] (start 1/99), the “enrichment in specific T-cells after 12 days” value amounted to 43 times. In addition, in the experiment with 2C+ T-cells [3] (start 1/99 2C+/total CD8+, immobilized L^d and anti-CD28, IL-2 from day 2), the “cells expressing the 2C T-cell receptor (2C+) at day 12” value was found to be 43%.
